Experimental data from patent US20100216791A1, “PYRIDINYLQUINAZOLINAMINE DERIVATIVES AND THEIR USE AS B-RAF INHIBITORS” (ASTRAZENECA, priority 2006, published 2010).

Target: Mutant B-Raf (V600E) enzyme (MT B-Raf) (Homo sapiens, UniProt P15056, V600E)
Experiment: biochemical
Conditions: B-Raf Alpha screen comparable to the described assay; phosphorylation of biotinylated HIS-MEK-AVI; results may be an average of two or more results

Mutant B-Raf (V600E) enzyme (MT B-Raf), sequence (P15056 whole entry V600E): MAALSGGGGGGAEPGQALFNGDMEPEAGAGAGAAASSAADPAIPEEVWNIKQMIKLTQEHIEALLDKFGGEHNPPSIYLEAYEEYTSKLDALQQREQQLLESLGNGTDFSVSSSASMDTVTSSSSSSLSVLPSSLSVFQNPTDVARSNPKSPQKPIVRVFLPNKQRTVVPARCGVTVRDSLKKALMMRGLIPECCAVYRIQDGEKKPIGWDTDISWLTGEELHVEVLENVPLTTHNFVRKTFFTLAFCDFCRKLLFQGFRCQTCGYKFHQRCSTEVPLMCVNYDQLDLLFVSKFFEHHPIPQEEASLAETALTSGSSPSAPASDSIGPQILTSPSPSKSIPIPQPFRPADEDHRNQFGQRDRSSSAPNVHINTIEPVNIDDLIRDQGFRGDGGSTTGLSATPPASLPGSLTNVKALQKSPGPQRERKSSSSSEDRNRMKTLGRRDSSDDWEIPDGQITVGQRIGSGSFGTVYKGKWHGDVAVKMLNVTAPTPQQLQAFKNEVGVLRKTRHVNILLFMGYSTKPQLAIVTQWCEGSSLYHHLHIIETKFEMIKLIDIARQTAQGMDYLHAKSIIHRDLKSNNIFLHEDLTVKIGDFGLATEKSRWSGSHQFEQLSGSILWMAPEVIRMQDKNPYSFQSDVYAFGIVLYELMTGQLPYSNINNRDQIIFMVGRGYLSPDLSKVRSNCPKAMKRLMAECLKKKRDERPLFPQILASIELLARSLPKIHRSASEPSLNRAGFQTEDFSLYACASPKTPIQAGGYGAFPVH

With O=C(NCC1CCCN1)c1ccc(Nc2ncc3cc(-c4ccncc4)ccc3n2)cc1 (stereo not drawn) [Example 60, 4-[(6-Pyridin-4-ylquinazolin-2-yl)amino]-N-pyrrolidin-2-ylmethylbenzamide] the IC50 was 0.15 µM.

With O=C(NCCCn1ccnc1)c1ccc(Nc2ncc3cc(-c4ccncc4)ccc3n2)cc1 [Example 35, N-[3-(1H-Imidazol-1-yl)propyl]-4-[(6-pyridin-4-ylquinazolin-2-yl)amino]benzamide] the IC50 was 0.11 µM.

For CCCCNS(=O)(=O)c1cccc(Nc2ncc3cc(-c4ccncc4)ccc3n2)c1 [Example 84, N-Butyl-3-[(6-pyridin-4-ylquinazolin-2-yl)amino]benzenesulfonamide], the IC50 was 0.82 µM.

For CC(C)Oc1cccc(Nc2ncc3cc(-c4ccncc4)ccc3n2)c1 [Example 86, N-(3-Isopropoxyphenyl)-6-pyridin-4-ylquinazolin-2-amine], the IC50 was 1.5 µM.

With CS(=O)(=O)c1cccc(Nc2ncc3cc(-c4ccncc4)ccc3n2)c1 [Example 104, N-[3-(Methylsulfonyl)phenyl]-6-pyridin-4-ylquinazolin-2-amine] the IC50 was 0.16 µM.

FC(F)(F)Oc1ccc(Nc2ncc3cc(-c4ccncc4)ccc3n2)cc1 [Example 99, 6-Pyridin-4-yl-N-[4-(trifluoromethoxy)phenyl]quinazolin-2-amine] showed an IC50 of 1.1 µM.

Work on CC(C)(C)OC(=O)N1CCC(CNC(=O)c2ccc(Nc3ncc4cc(-c5ccncc5)ccc4n3)cc2)CC1 [Example 24, tert-Butyl 4-[({4-[(6-pyridin-4-ylquinazolin-2-yl)amino]benzoyl}amino)methyl]piperidine-1-carboxylate] yielded an IC50 of 0.52 µM.

In the case of CC(C)(C)OC(=O)N1CCCC1CNC(=O)c1ccc(Nc2ncc3cc(-c4ccncc4)ccc3n2)cc1 (stereo not drawn) [Example 19, tert-Butyl 2-[({4-[(6-pyridin-4-ylquinazolin-2-yl)amino]benzoyl}amino)methyl]pyrrolidine-1-carboxylate], the IC50 is reported as 0.49 µM.

CC(c1ccc(Nc2ncc3cc(-c4ccncc4)ccc3n2)cc1)N(C)CCO (stereo not drawn) [Example 134] gave an IC50 of 0.035 µM.

COC(=O)c1ccc(Nc2ncc3cc(-c4ccncc4)ccc3n2)cc1 [Example 9, Methyl 4-[(6-pyridin-4-ylquinazolin-2-yl)amino]benzoate] showed an IC50 of 0.23 µM.

c1cc(-c2ccc3nc(Nc4ccc(N5CCOCC5)cc4)ncc3c2)ccn1 [Example 79, N-(4-Morpholin-4-ylphenyl)-6-pyridin-4-ylquinazolin-2-amine] was tested, and the IC50 was 0.13 µM.

In the case of O=C(NCCO)c1ccc(Nc2ncc3cc(-c4ccncc4)ccc3n2)cc1 [Example 7, N-(2-Hydroxyethyl)-4-[(6-pyridin-4-ylquinazolin-2-yl)amino]benzamide], the IC50 is reported as 0.14 µM.

With CCCNC(C)c1ccc(Nc2ncc3cc(-c4ccncc4)ccc3n2)cc1 (stereo not drawn) [Example 138] the IC50 was 0.047 µM.

CC(C)(C)OC(=O)NCCCNC(=O)c1ccc(Nc2ncc3cc(-c4ccncc4)ccc3n2)cc1 [Example 26, tert-Butyl [3-({4-[(6-pyridin-4-ylquinazolin-2-yl)amino]benzoyl}amino)propyl]carbamate] showed an IC50 of 0.55 µM.

Work on CNC(=O)c1ccc(Nc2ncc3cc(-c4ccncc4)ccc3n2)cc1 [Example 17, N-Methyl-4-[(6-pyridin-4-ylquinazolin-2-yl)amino]benzamide] yielded an IC50 of 0.079 µM.

With CNCCCNC(=O)c1ccc(Nc2ncc3cc(-c4ccncc4)ccc3n2)cc1 [Example 59, N-[3-(Methylamino)propyl]-4-[(6-pyridin-4-ylquinazolin-2-yl)amino]benzamide] the IC50 was 0.069 µM.

For CN(CCCNC(=O)c1ccc(Nc2ncc3cc(-c4ccncc4)ccc3n2)cc1)C(=O)OC(C)(C)C [Example 13, tert-Butyl methyl[3-({4-[(6-pyridin-4-ylquinazolin-2-yl)amino]benzoyl}amino)propyl]carbamate], the IC50 was 0.31 µM.

With CC(CN(C)C)NCc1ccc(Nc2ncc3cc(-c4ccncc4)ccc3n2)cc1 (stereo not drawn) [Example 74, N^1,N^1-Dimethyl-N^2-{4-[(6-pyridin-4-ylquinazolin-2-yl)amino]benzyl}propane-1,2-diamine] the IC50 was 0.16 µM.

CN1CCN(C(=O)c2ccc(Nc3ncc4cc(-c5ccncc5)ccc4n3)cc2)CC1 [Example 120] showed an IC50 of 0.056 µM.

c1cc(-c2ccc3nc(Nc4ccc(OCCN5CCOCC5)cc4)ncc3c2)ccn1 [Example 43, N-[4-(2-Morpholin-4-ylethoxy)phenyl]-6-pyridin-4-ylquinazolin-2-amine] was tested, and the IC50 was 0.16 µM.

For CC(c1ccc(Nc2ncc3cc(-c4ccncc4)ccc3n2)cc1)N1CCCC1 (stereo not drawn) [Example 131, 6-(Pyridin-4-yl)-N-(4-(1-(pyrrolidin-1-yl)ethyl)phenyl)quinazolin-2-amine], the IC50 was 0.019 µM.

Compound Cc1ccc(Nc2ncc3cc(-c4ccncc4)ccc3n2)cc1 [Example 106, N-(4-Methylphenyl)-6-pyridin-4-ylquinazolin-2-amine] has an IC50 of 23 µM.

CCCNC(C)c1ccc(Nc2ncc3cc(-c4ccncc4)ccc3n2)cc1 (single isomer, unassigned) [Example 141] was tested, and the IC50 was 0.034 µM.

Compound O=C(NCC1CCCCN1)c1ccc(Nc2ncc3cc(-c4ccncc4)ccc3n2)cc1 (stereo not drawn) [Example 68, N-Piperidin-2-ylmethyl-4-[(6-pyridin-4-ylquinazolin-2-yl)amino]benzamide] has an IC50 of 0.11 µM.

Work on Fc1ccc(Nc2ncc3cc(-c4ccncc4)ccc3n2)cc1 [Example 105, N-(4-Fluorophenyl)-6-pyridin-4-ylquinazolin-2-amine] yielded an IC50 of 1.2 µM.

CC(O)CCNC(C)c1ccc(Nc2ncc3cc(-c4ccncc4)ccc3n2)cc1 (stereo not drawn) [Example 56, 4-[(1-{4-[(6-Pyridin-4-ylquinazolin-2-yl)amino]phenyl}ethyl)amino]butan-2-ol] showed an IC50 of 0.026 µM.

O=S(=O)(c1ccc(Nc2ncc3cc(-c4ccncc4)ccc3n2)cc1)N1CCOCC1 [Example 94, N-[4-(Morpholin-4-ylsulfonyl)phenyl]-6-pyridin-4-ylquinazolin-2-amine] was tested, and the IC50 was 0.3 µM.

For CC(C)(C#N)c1ccc(Nc2ncc3cc(-c4ccncc4)ccc3n2)cc1 [Example 2, 2-Methyl-2-{4-[(6-pyridin-4-ylquinazolin-2-yl)amino]phenyl}propanenitrile], the IC50 was 0.73 µM.

COCCNC(=O)c1ccc(Nc2ncc3cc(-c4ccncc4F)ccc3n2)cc1 [Example 48, 4-{[6-(3-Fluoropyridin-4-yl)quinazolin-2-yl]amino}-N-(2-methoxyethyl)benzamide] gave an IC50 of 0.27 µM.

COCCCNC(C)c1ccc(Nc2ncc3cc(-c4ccncc4)ccc3n2)cc1 (stereo not drawn) [Example 55, N-(4-{1-[(3-Methoxypropyl)amino]ethyl}phenyl)-6-pyridin-4-ylquinazolin-2-amine] showed an IC50 of 0.022 µM.

With O=C(NCCOCCO)c1ccc(Nc2ncc3cc(-c4ccncc4)ccc3n2)cc1 [Example 8, N-[2-(2-Hydroxyethoxy)ethyl]-4-[(6-pyridin-4-ylquinazolin-2-yl)amino]benzamide] the IC50 was 0.12 µM.

In the case of CC(NCC1CC1)c1ccc(Nc2ncc3cc(-c4ccncc4)ccc3n2)cc1 (stereo not drawn) [Example 136, N-(4-{1-[(Cyclopropylmethyl)amino]ethyl}phenyl)-6-pyridin-4-ylquinazolin-2-amine], the IC50 is reported as 0.037 µM.

In the case of COCCNC(=O)c1ccc(Nc2ncc3cc(-c4ccnc(OC)c4)ccc3n2)cc1 [Example 115], the IC50 is reported as 0.52 µM.

Cc1cc(Nc2ncc3cc(-c4ccncc4)ccc3n2)ccc1C(=O)NCCN(C)C [Example 36, N-[2-(Dimethylamino)ethyl]-2-methyl-4-[(6-pyridin-4-ylquinazolin-2-yl)amino]benzamide] gave an IC50 of 0.095 µM.

In the case of O=C(NCCCN1CCCC1=O)c1ccc(Nc2ncc3cc(-c4ccncc4)ccc3n2)cc1 [Example 21, N-[3-(2-Oxopyrrolidin-1-yl)propyl]-4-[(6-pyridin-4-ylquinazolin-2-yl)amino]benzamide], the IC50 is reported as 0.2 µM.

Compound FC(F)(F)c1cccc(Nc2ncc3cc(-c4ccncc4)ccc3n2)c1 [Example 82, 6-Pyridin-4-yl-N-[3-(trifluoromethyl)phenyl]quinazolin-2-amine] has an IC50 of 3.1 µM.

Compound COCCNC(=O)c1ccc(Nc2ncc3cc(-c4ccncc4)ccc3n2)c(OC)c1 [Example 114] has an IC50 of 6.8 µM.

c1cc(-c2ccc3nc(Nc4ccc(OCCN5CCCCC5)cc4)ncc3c2)ccn1 [Example 42, N-[4-(2-Piperidin-1-ylethoxy)phenyl]-6-pyridin-4-ylquinazolin-2-amine] was tested, and the IC50 was 0.23 µM.

CC(=O)N1CCN(C(=O)c2ccc(Nc3ncc4cc(-c5ccncc5)ccc4n3)cc2)CC1 [Example 119] gave an IC50 of 0.064 µM.

Compound c1cc(-c2ccc3nc(Nc4ccc5c(c4)OCO5)ncc3c2)ccn1 [Example 44, N-1,3-Benzodioxol-5-yl-6-pyridin-4-ylquinazolin-2-amine] has an IC50 of 0.42 µM.

For CC(O)CCNC(=O)c1ccc(Nc2ncc3cc(-c4ccncc4)ccc3n2)cc1 (stereo not drawn) [Example 34, N-(3-Hydroxybutyl)-4-[(6-pyridin-4-ylquinazolin-2-yl)amino]benzamide], the IC50 was 0.27 µM.

CC(NCCCO)c1ccc(Nc2ncc3cc(-c4ccncc4)ccc3n2)cc1 (stereo not drawn) [Example 58, 3-[(1-{4-[(6-Pyridin-4-ylquinazolin-2-yl)amino]phenyl}ethyl)amino]propan-1-ol] was tested, and the IC50 was 0.036 µM.

Cc1nc2cc(Nc3ncc4cc(-c5ccncc5)ccc4n3)ccc2o1 [Example 109, N-(2-Methyl-1,3-benzoxazol-5-yl)-6-pyridin-4-ylquinazolin-2-amine] showed an IC50 of 0.94 µM.

For NCCCNC(=O)c1ccc(Nc2ncc3cc(-c4ccncc4)ccc3n2)cc1 [Example 62, N-(3-Aminopropyl)-4-[(6-pyridin-4-ylquinazolin-2-yl)amino]benzamide], the IC50 was 0.093 µM.

In the case of O=S(=O)(c1ccc(Nc2ncc3cc(-c4ccncc4)ccc3n2)cc1)C(F)F [Example 95, N-{4-[(Difluoromethyl)sulfonyl]phenyl}-6-pyridin-4-ylquinazolin-2-amine], the IC50 is reported as 1 µM.

CC(c1ccc(Nc2ncc3cc(-c4ccncc4)ccc3n2)cc1)N(C)C (single isomer, unassigned) [Example 140] was tested, and the IC50 was 0.021 µM.

CNCCNC(=O)c1cccc(Nc2ncc3cc(-c4ccncc4)ccc3n2)n1 [Example 65, N-[2-(Methylamino)ethyl]-6-[(6-pyridin-4-ylquinazolin-2-yl)amino]pyridine-2-carboxamide] was tested, and the IC50 was 1 µM.

Work on OCCc1ccc(Nc2ncc3cc(-c4ccncc4)ccc3n2)cc1 [Example 52, 2-{4-[(6-Pyridin-4-ylquinazolin-2-yl)amino]phenyl}ethanol] yielded an IC50 of 0.12 µM.
